Results taken from patent US8288410B2, “3-substituted quinolinium and 7H-indolo[2,3-c]quinolinium salts as new antiinfectives” (Florida Agricultural and Mechanical University, priority 2008, dated 2012).
Values after ≈ are worked out from the molar mass of the structure shown. Read-outs that look alike come from different tables or passages of the source.

Assays:
MRSA = test: Antibacterial susceptibility testing, MRSA; format: cell-based, methicillin resistant Staphylococcus aureus; settings: for IC50 / MFC / MIC: Staphylococcus aureus; for MFC: Table 3, read-out: MRSA MFC
Procedure, shortened: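 MRSA, sourced from the American Type Culture Collection, was tested for susceptibility with a modified National Committee for Clinical Laboratory Standards method. DMSO sample solutions were serially diluted in saline and placed in duplicate in 96 well microplates. Broth-diluted bacterial suspensions, standardized to 0.5 McFarland, brought each well to 200 μL, with the highest test concentration at 20 μg/mL.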

Vero Cells = test: Cytotoxicity, Vero cells; format: cell-based
[1] = test system: Candida albicans ATTC 90028; test: Antifungal susceptibility testing, Candida albicans; format: cell-based
Procedure, shortened: (§1)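 Modified NCCLS broth microdilution, samples serially diluted from 20 μg/mL top concentration, inocula per 0.5 McFarland (C. albicans in SDB or RPMI 1640; C. neoformans in SDB; A. fumigatus in YM broth or RPMI-1640 + 5% Alamar Blue). IC50 from percent growth versus concentration; MIC read visually as lowest concentration without detectable growth.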

[2] = test system: Cryptococcus neoformans ATCC 90113; test: Antifungal susceptibility testing, Cryptococcus neoformans; format: cell-based
Procedure, shortened: as §1

[3] = test system: Aspergillus fumigatus ATCC 90906; test: Antifungal susceptibility testing, Aspergillus fumigatus; format: cell-based; settings: for A fu IC50 / IC50: Aspergillus fumigatus; for IC50: ATCC90906, read-out: A fu IC50
Procedure, shortened: as §1

Structure (SMILES) | MRSA IC50 (MRSA; Table 2) | MRSA MFC (MRSA; Table 2) | MRSA MIC (MRSA; Table 2) | TC50 Vero Cells (Vero Cells; Table 2) | Ca IC50 ([1]; Table 2) | Ca MFC ([1]; Table 2) | Ca MIC ([1]; Table 2) | Cn IC50 ([2]; Table 2) | Cn MFC ([2]; Table 2) | Cn MIC ([2]; Table 2) | A fu MFC [3] | A fu MIC [3] | A fu IC50 ([3]; Table 2) | TC50 Vero Cells (Vero Cells; Table 3) | also measured
COc1cccc(N(CCCCCC2CCCCC2)c2cc3ccccc3[n+](C)c2)c1.[I-] [JRE-3-69-1] | 0.50 µg/mL | 1.3 µg/mL | 1.3 µg/mL | >10 µg/mL | 0.85 µg/mL | 2.5 µg/mL | 2.5 µg/mL | 0.55 µg/mL | 5.0 µg/mL | 1.3 µg/mL | 10 µg/mL | 1.3 µg/mL | 0.70 µg/mL | – | –
COc1ccc(N(CCCCCC2CCCCC2)c2cc3ccccc3[n+](C)c2)cc1.[I-] [JRE-3-68-1] | 0.50 µg/mL | 1.3 µg/mL | 1.3 µg/mL | >10 µg/mL | 0.80 µg/mL | 1.3 µg/mL | 1.3 µg/mL | 0.50 µg/mL | 5.0 µg/mL | 1.3 µg/mL | 10 µg/mL | 1.3 µg/mL | 0.80 µg/mL | – | –
O=C(O)c1cn(C2CC2)c2cc(N3CCNCC3)c(F)cc2c1=O [Cipro, Ciprofloxacin, reference compound] | – | – | – | – | – | – | – | – | – | – | – | – | – | >10 µg/mL | IC50 (MRSA; Table 3, read-out: MRSA IC50): 0.09 µg/mL (≈ 0.272 µM); MFC (MRSA): > 20 µg/mL; MIC (MRSA; Table 3, read-out: MRSA MIC): 0.5 µg/mL (≈ 1.51 µM)
C[n+]1cc(N(CCCCCC2CCCCC2)c2ccsc2)cc2ccccc21 [EVK-II-091] | – | – | – | >10 µg/mL | – | – | – | – | – | – | 5.0 µg/mL | 1.3 µg/mL | – | – | IC50 (MRSA; Table 2, read-out: MRSA IC50): 0.45 µg/mL; MIC (MRSA; Table 2, read-out: MRSA MIC): 0.63 µg/mL; IC50 ([1]; ATTC90028, Table 2, read-out: Ca IC50): 0.8 µg/mL; MFC ([1]; ATTC90028, Table 2, read-out: Ca MFC): > 20 µg/mL; MIC ([1]; ATTC90028, Table 2, read-out: Ca MIC): 1.3 µg/mL; IC50 ([2]; ATCC90113, Table 2, read-out: Cn IC50): 0.45 µg/mL; MFC ([2]; ATCC90113, Table 2, read-out: Cn MFC): 5 µg/mL; MIC ([2]; ATCC90113, Table 2, read-out: Cn MIC): 0.63 µg/mL; IC50 ([3]; Table 2): 0.5 µg/mL
C[n+]1cc(N(CCCCCC2CCCCC2)c2ccc(C(F)(F)F)cc2)cc2ccccc21.[I-] [JRE-3-20-1] | 0.40 µg/mL | 1.6 µg/mL | 0.78 µg/mL | 25 µg/mL | 0.65 µg/mL | 3.1 µg/mL | 1.6 µg/mL | 0.65 µg/mL | 3.1 µg/mL | 1.6 µg/mL | 6.3 µg/mL | 3.1 µg/mL | 1.0 µg/mL | – | –
C[n+]1cc2c(c3ccc(C(F)(F)F)cc3n2CCCCCC2CCCCC2)c2ccccc21.[I-] [JRE-5-31-1] | – | – | – | – | – | – | – | – | – | – | 10 µg/mL | 5.0 µg/mL | – | >10 µg/mL | MRSA IC50 (MRSA; Table 3): 0.70 µg/mL; MRSA MFC (MRSA; Table 3): 1.3 µg/mL; MRSA MIC (MRSA; Table 3): 1.3 µg/mL; Ca IC50 ([1]; Table 3): 0.80 µg/mL; Ca MFC ([1]; Table 3): — ((-) = >20 μg/mL); Ca MIC ([1]; Table 3): 1.3 µg/mL; Cn IC50 ([2]; Table 3): 0.85 µg/mL; Cn MFC ([2]; Table 3): 2.5 µg/mL; Cn MIC ([2]; Table 3): 1.3 µg/mL; A fu IC50 ([3]; Table 3): 1.5 µg/mL
C[n+]1cc2c(c3cc(Cl)ccc3n2CCCCCC2CCCCC2)c2ccccc21.[I-] [JRE-3-13-1, 10-Chloro-7-(5-cyclohexyl-pentyl)-5-methyl-7H-indolo[2,3-c]quinolin-5-ium iodide] | – | – | – | – | – | – | – | – | – | – | 25 µg/mL | 6.3 µg/mL | – | >10 µg/mL | IC50 (MRSA; Table 3, read-out: MRSA IC50): 0.5 µg/mL; MFC (MRSA): 0.8 µg/mL; MIC (MRSA; Table 3, read-out: MRSA MIC): 0.8 µg/mL; IC50 ([1]; ATTC90028, Table 3, read-out: Ca IC50): 0.9 µg/mL; MFC ([1]; ATTC90028, Table 3, read-out: Ca MFC): 1.6 µg/mL; MIC ([1]; ATTC90028, Table 3, read-out: Ca MIC): 1.6 µg/mL; IC50 ([2]; ATCC90113, Table 3, read-out: Cn IC50): 0.9 µg/mL; MFC ([2]; ATCC90113, Table 3, read-out: Cn MFC): 1.6 µg/mL; MIC ([2]; ATCC90113, Table 3, read-out: Cn MIC): 1.6 µg/mL; IC50 ([3]; Table 3): 2 µg/mL
